“And” between values parts separate entries of the source, which are not always exact repeats. Equal values may be shown once. Records with an inconclusive call do not appear.
System: BDF1 mice, Friend leukemia sc, tumor weight T/C
Assay: NCI In Vivo Anticancer Drug Screen. Data for tumor model Friend Virus Leukemia (Solid) (subcutaneous) in B6D2F1 (BDF1) mice
Conditions: endpoint: mean tumor weight, schedule: Q01DX011 (ip), higher = larger tumour
Experimental: The antitumor activity of compounds was measured in mice bearing transplantable tumors. Survival or tumor size were measured and the results are expressed as the measurement made in the treated group (T) divided by the measurement made in the vehicle treated control group (C). The tumor model used in this assay is Friend Virus Leukemia (Solid) (subcutaneous) in B6D2F1 (BDF1) mice

[1] = dose: 15.0 mg/kg/injection, vehicle: carboxymethylcellulose (CMC)
[2] = dose: 75.0 mg/kg/injection, vehicle: carboxymethylcellulose (CMC)
[3] = dose: 1.5 mg/kg/injection, vehicle: carboxymethylcellulose (CMC)
[4] = dose: 250.0 mg/kg/injection, vehicle: carboxymethylcellulose (CMC)
[5] = dose: 1000.0 mg/kg/injection, vehicle: carboxymethylcellulose (CMC)
[6] = dose: 150.0 mg/kg/injection, vehicle: carboxymethylcellulose (CMC)
[7] = dose: 18.0 mg/kg/injection, vehicle: carboxymethylcellulose (CMC)

For `Nc1nc(N)c2[nH]cnc2n1`, the T/C (dose: 11.0 mg/kg/injection, vehicle: carboxymethylcellulose (CMC)) was 109 % of control, the T/C (dose: 22.0 mg/kg/injection, vehicle: carboxymethylcellulose (CMC)) was 92 % of control and the T/C (dose: 44.0 mg/kg/injection, vehicle: carboxymethylcellulose (CMC)) was 87 % of control. For the same compound, the T/C (dose: 88.0 mg/kg/injection, vehicle: carboxymethylcellulose (CMC)) was 66 % of control and 85 % of control.
For `CCOC(=O)Sc1ncnc2nc[nH]c12`, the T/C (dose: 7.5 mg/kg/injection, vehicle: carboxymethylcellulose (CMC)) was 44 % of control, the T/C [1] was 48 % of control and the T/C (dose: 25.0 mg/kg/injection, vehicle: carboxymethylcellulose (CMC)) was 29 % of control and 40 % of control. The T/C (dose: 50.0 mg/kg/injection, vehicle: carboxymethylcellulose (CMC)) was 17 % of control and the T/C (dose: 100.0 mg/kg/injection, vehicle: carboxymethylcellulose (CMC)) was 2 % of control.
With `Brc1ncnc2nc[nH]c12` the T/C [2] was 51 % of control, the T/C (dose: 113.0 mg/kg/injection, vehicle: carboxymethylcellulose (CMC)) was 82 % of control and the T/C (dose: 171.0 mg/kg/injection, vehicle: carboxymethylcellulose (CMC)) was 43 % of control. For the same compound, the T/C (dose: 256.0 mg/kg/injection, vehicle: carboxymethylcellulose (CMC)) was 34 % of control.
`CCCn1cnc2c(=S)nc(N)[nH]c21` was tested, and the T/C (dose: 0.67 mg/kg/injection, vehicle: carboxymethylcellulose (CMC)) was 67 % of control, the T/C (dose: 1.0 mg/kg/injection, vehicle: carboxymethylcellulose (CMC)) was 67 % of control and the T/C [3] was 28 % of control. For the same compound, the T/C (dose: 2.9 mg/kg/injection, vehicle: carboxymethylcellulose (CMC)) was 32 % of control and the T/C (dose: 4.4 mg/kg/injection, vehicle: carboxymethylcellulose (CMC)) was 32 % of control.
`Cc1ncc(CO)c(C)c1O` was tested, and the T/C (dose: 22.75 mg/kg/injection, vehicle: carboxymethylcellulose (CMC)) was 54 % of control, the T/C (dose: 45.5 mg/kg/injection, vehicle: carboxymethylcellulose (CMC)) was 111 % of control and the T/C (dose: 121.0 mg/kg/injection, vehicle: carboxymethylcellulose (CMC)) was 84 % of control and 98 % of control. The T/C (dose: 126.0 mg/kg/injection, vehicle: carboxymethylcellulose (CMC)) was 112 % of control.
For `NC(C=O)C(O)C(O)C(O)CO` (stereo not given), the T/C (dose: 125.0 mg/kg/injection, vehicle: carboxymethylcellulose (CMC)) was 102 % of control, the T/C [4] was 168 % of control and the T/C [5] was 115 % of control.
For `CC(C)(c1ccccc1)c1ccc(O)cc1`, the T/C (dose: 37.5 mg/kg/injection, vehicle: carboxymethylcellulose (CMC)) was 94 % of control, the T/C [2] was 107 % of control and the T/C [6] was 87 % of control.
With `CS(=O)(=O)OCCCCOS(C)(=O)=O` the T/C (dose: 6.62 mg/kg/injection, vehicle: carboxymethylcellulose (CMC)) was 107 % of control, the T/C (dose: 7.0 mg/kg/injection, vehicle: carboxymethylcellulose (CMC)) was 65 % of control and the T/C (dose: 13.25 mg/kg/injection, vehicle: carboxymethylcellulose (CMC)) was 68 % of control. The T/C (dose: 14.0 mg/kg/injection, vehicle: carboxymethylcellulose (CMC)) was 91 % of control, the T/C (dose: 26.5 mg/kg/injection, vehicle: carboxymethylcellulose (CMC)) was 110 % of control and the T/C (dose: 27.0 mg/kg/injection, vehicle: carboxymethylcellulose (CMC)) was 55 % of control. The T/C (dose: 53.0 mg/kg/injection, vehicle: carboxymethylcellulose (CMC)) was 66 % of control.
In the case of `O=C(Nc1ccc(C2=NCCN2)cc1)c1cccc(C(=O)Nc2ccc(C3=NCCN3)cc2)c1`, the T/C (dose: 25.0 mg/kg/injection, vehicle: water) is reported as 72 % of control.
For `Nc1nc(SCc2ccccc2)c2ncn(C3CCCC3)c2n1`, the T/C [4] was 69 % of control, the T/C (dose: 500.0 mg/kg/injection, vehicle: carboxymethylcellulose (CMC)) was 64 % of control and the T/C [5] was 5 % of control.
With `COS(C)(=O)=O` the T/C (dose: 9.0 mg/kg/injection, vehicle: carboxymethylcellulose (CMC)) was 167 % of control, the T/C (dose: 9.37 mg/kg/injection, vehicle: saline) was 116 % of control and the T/C [7] was 98 % of control. The T/C (dose: 18.75 mg/kg/injection, vehicle: saline) was 114 % of control, the T/C (dose: 37.5 mg/kg/injection, vehicle: saline) was 85 % of control and the T/C (dose: 75.0 mg/kg/injection, vehicle: saline) was 76 % of control. For the same compound, the T/C (dose: 100.0 mg/kg/injection, vehicle: saline) was 69 % of control.
For `ClCCn1cnc2c(SCc3ccccc3)ncnc21`, the T/C [7] was 85 % of control, the T/C (dose: 37.0 mg/kg/injection, vehicle: carboxymethylcellulose (CMC)) was 35 % of control and the T/C [2] was 32 % of control. For the same compound, the T/C [6] was 11 % of control and 35 % of control and the T/C (dose: 300.0 mg/kg/injection, vehicle: carboxymethylcellulose (CMC)) was 4 % of control.
With `O=C(Nc1ccc(C2=NCCN2)cc1)c1ccc(C(=O)Nc2ccc(C3=NCCN3)cc2)c(Cl)c1` the T/C (dose: 0.31 mg/kg/injection, vehicle: carboxymethylcellulose (CMC)) was 66 % of control, the T/C (dose: 0.5 mg/kg/injection, vehicle: carboxymethylcellulose (CMC)) was 93 % of control and the T/C (dose: 0.63 mg/kg/injection, vehicle: carboxymethylcellulose (CMC)) was 50 % of control. The T/C (dose: 1.25 mg/kg/injection, vehicle: carboxymethylcellulose (CMC)) was 40 % of control and 46 % of control, the T/C (dose: 2.5 mg/kg/injection, vehicle: carboxymethylcellulose (CMC)) was 39 % of control and the T/C (dose: 10.0 mg/kg/injection, vehicle: carboxymethylcellulose (CMC)) was 93 % of control. For the same compound, the T/C [1] was 21 % of control [middle of 4 runs] and the T/C (dose: 20.0 mg/kg/injection, vehicle: carboxymethylcellulose (CMC)) was 6 % of control.
`Nc1nc(F)nc2c1ncn2C1OC(CO)C(O)C1O` (stereo not given) was tested, and the T/C (dose: 0.06 mg/kg/injection, vehicle: saline) was 155 % of control, the T/C (dose: 0.12 mg/kg/injection, vehicle: saline) was 120 % of control and the T/C (dose: 0.75 mg/kg/injection, vehicle: saline) was 225 % of control. For the same compound, the T/C (dose: 1.5 mg/kg/injection, vehicle: saline) was 203 % of control and the T/C (dose: 3.0 mg/kg/injection, vehicle: saline) was 199 % of control.
For `CC(/C=N/N=C(N)N)=N\N=C(N)N`, the T/C (dose: 12.5 mg/kg/injection, vehicle: saline) was 155 % of control, the T/C (dose: 25.0 mg/kg/injection, vehicle: saline) was 190 % of control and the T/C (dose: 50.0 mg/kg/injection, vehicle: saline) was 169 % of control.
In the case of `Cn1c(O)c(N=NC(N)=S)c2ccccc21`, the T/C (dose: 15.0 mg/kg/injection, vehicle: saline) is reported as 110 % of control, the T/C (dose: 30.0 mg/kg/injection, vehicle: saline) is reported as 105 % of control and the T/C (dose: 60.0 mg/kg/injection, vehicle: saline) is reported as 108 % of control. For the same compound, the T/C (dose: 120.0 mg/kg/injection, vehicle: saline) was 75 % of control and the T/C (dose: 240.0 mg/kg/injection, vehicle: saline) was 94 % of control.
For `Oc1cc(CN(CCCl)CCCl)c(O)cc1CN(CCCl)CCCl`, the T/C (dose: 0.44 mg/kg/injection, vehicle: carboxymethylcellulose (CMC)) was 63 % of control and the T/C (dose: 0.88 mg/kg/injection, vehicle: carboxymethylcellulose (CMC)) was 86 % of control.
With `CCN(CC)c1ccc(/C=C/c2ccnc3ccccc23)cc1` the T/C [3] was 202 % of control, the T/C (dose: 3.0 mg/kg/injection, vehicle: carboxymethylcellulose (CMC)) was 280 % of control and the T/C (dose: 12.0 mg/kg/injection, vehicle: carboxymethylcellulose (CMC)) was 106 % of control.
For `O=P(c1ccccc1)(N1CC1)N1CC1`, the T/C (dose: 6.0 mg/kg/injection, vehicle: saline) was 106 % of control, the T/C (dose: 12.0 mg/kg/injection, vehicle: saline) was 124 % of control and the T/C (dose: 24.0 mg/kg/injection, vehicle: saline) was 80 % of control.

Source: PubChem BioAssay AID228 (DTP/NCI, 2004)
